Assay results taken from patent publication US8829200B2, “Benzimidazole inhibitors of leukotriene production” (Boehringer Ingelheim International GmbH, priority 2010, dated 2014).

Columns and labels:
[1] = tested on: biomarkers for myocardial infarction risk; conditions: clinical trial; cited from earlier work
[2] = target: recombinant human FLAP protein (Homo sapiens (Human), UniProt P20292); assay: FLAP binding assay (Scintillation Proximity Assay); conditions: displacement of [125I]L-691,831, membranes of sf9 cells expressing human FLAP; read-out: SPA IC50
Chain of recombinant human FLAP protein (P20292 whole entry): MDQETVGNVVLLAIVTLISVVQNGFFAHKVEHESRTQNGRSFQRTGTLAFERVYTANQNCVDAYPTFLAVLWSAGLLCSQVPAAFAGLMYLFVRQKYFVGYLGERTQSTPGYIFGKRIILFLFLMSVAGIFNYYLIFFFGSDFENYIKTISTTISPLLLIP
Protocol: Compounds are assessed for the ability to bind to FLAP in a binding assay that measures compound-specific displacement of an iodinated (^125I) FLAP inhibitor via a Scintillation Proximity Assay format (adapted from S. Charleson et al., Mol. Pharmacol., 1992, 41, 873-879).
Cell pellets produced from sf9 insect cells expressing recombinant human FLAP protein are resuspended in buffer A [15 mM Tris-HCl (pH 7.5), 2 mM MgCl2, 0.3 mM EDTA, 1 mM PMSF]. The cells are lysed with a Dounce homogenizer and the material is centrifuged at 10,000×g for 10 minutes. The supernatant is then collected and centrifuged at 100,000×g for 60 minutes. To prepare membrane protein for an assay, an aliquot of the 100,000×g pellet is resuspended in 1 ml of buffer A, Dounce homogenized, and finally subjected to polytron mixing (30 seconds). Membrane protein (25 μl, 5 μg) is mixed with WGA SPA beads (Amersham) and stirred for 1 h. To an assay plate (Perkin Elmer FlexiPlate) is added 25 μl of test compound prepared in Binding buffer [100 mM Tris (pH 7.5), 140 mM NaCl, 5% glycerol, 2 mM EDTA, 0.5 mM TCEP, 0.05% Tween 20], 25 μl of [^125I]L-691,831 (an iodinated analog of MK-591, Charleson et al. Mol. Pharmacol., 41, 873-879, 1992) and finally 50 μl of the bead/protein mixture. (final concentrations: beads, 200 μg/well; protein, 5 μg/well; [^125I] probe, 0.08 nM/well (17 nCi/well). The plates are shaken for 2 h before reading on a Microbeta plate reader. Non-specific binding is determined by the addition of 10 μM cold L-691,831 compound.

[3] = tested on: synthesis of LTB4 in human whole blood; assay: human whole blood LTB4 production inhibition assay; assay type: cell-based; conditions: heparinized human whole blood, calcimycin-stimulated, plasma LTB4; read-out: hWB IC50
Protocol: Compounds are additionally tested in a human whole blood assay to determine their ability to inhibit the synthesis of LTB4 in a cellular system. Compounds are combined with heparinized human whole blood and incubated for 15 minutes at 37° C. Calcimycin ([…], prepared in phosphate-buffered saline, pH 7.4) is then added and the mixture is incubated for another 30 minutes at 37° C. The samples are centrifuged for 5 min at low speed (1500×g) and the plasma layer is removed. Plasma LTB4 concentrations are then measured using an antibody-based homogenous time-resolved fluorescence method (CisBio, Bedford, Mass.).

human glomerulonephritis = conditions: clinical trial; cited from earlier work
ApoE−/−xCD4dnTβRII mice = conditions: administration via infusion, treated for four weeks; cited from earlier work
[4] = tested on: apoE/LDL-R double knockout mice; conditions: oral dosing, high-fat diet from 2 months of age to 6 months; cited from earlier work

SMILES	IC50 [2] [nM]	IC50 [3] [µM]	further results
O=C(O)[C@@H](c1ccc(OCc2ccc3ccccc3n2)cc1)C1CCCC1 [DG-031]	–	–	effect on biomarkers for myocardial infarction risk [1]: dose-dependent suppression of several biomarkers
CC(C)(C)n1c(-c2ccccc2C(=O)N2CCOCC2)nc2cc(-c3cnc(N)nc3)ccc21 [Example 28, {2-[5-(2-Amino-pyrimidin-5-yl)-1-tert-butyl-1H-benzoimidazol-2-yl]-phenyl}-morpholin-4-yl-methanone]	520	> 5	–
CNC(=O)c1cc(F)ccc1-c1nc2cc(-c3cnc(N)nc3)ccc2n1C(C)(C)C [Example 33, 2-[5-(2-Amino-pyrimidin-5-yl)-1-tert-butyl-1H-benzoimidazol-2-yl]-5-fluoro-N-methyl-benzamide]	20	3.08	–
CNC(=O)c1cccc(F)c1-c1nc2cc(-c3cnc(N)nc3)ccc2n1C(C)(C)C [Example 34, 2-[5-(2-Amino-pyrimidin-5-yl)-1-tert-butyl-1H-benzoimidazol-2-yl]-3-fluoro-N-methyl-benzamide]	15.8	0.906	–
CC(C)(C)Sc1c(CC(C)(C)C(=O)O)n(Cc2ccc(Cl)cc2)c2ccc(OCc3ccc4ccccc4n3)cc12 [MK-591]	–	–	effect on proteinuria (human glomerulonephritis): reduce proteinuria
CC(C)c1ccc2c(c1)c(SC(C)(C)C)c(CC(C)(C)C(=O)O)n2Cc1ccc(Cl)cc1 [MK-886]	–	–	decrease in plaque area in the aortic root (ApoE−/−xCD4dnTβRII mice): ~40%; decrease in plaque coverage in the aorta [4]: 56%; decrease in plaque coverage in the aortic root [4]: 43%

Further lines, with some results ahead:

IC50 [2] [nM]	IC50 [3] [µM]	SMILES	further results
17.4	2.23	CCNC(=O)c1ccccc1-c1nc2cc(-c3cnc(N)nc3)ccc2n1C(C)(C)C [Example 23, 2-[5-(2-Amino-pyrimidin-5-yl)-1-tert-butyl-1H-benzoimidazol-2-yl]-N-ethyl-benzamide]	–
140	2.87	CN(C)CCNC(=O)c1ccccc1-c1nc2cc(-c3cnc(N)nc3)ccc2n1C(C)(C)C [Example 24, 2-[5-(2-Amino-pyrimidin-5-yl)-1-tert-butyl-1H-benzoimidazol-2-yl]-N-(2-dimethylamino-ethyl)-benzamide]	–
460	> 5	CC(C)(C)n1c(-c2ccccc2C(=O)NC2CCNCC2)nc2cc(-c3cnc(N)nc3)ccc21 [Example 25, 2-[5-(2-Amino-pyrimidin-5-yl)-1-tert-butyl-1H-benzoimidazol-2-yl]-N-piperidin-4-yl-benzamide]	–
34.6	4.9	CC(C)NC(=O)c1ccccc1-c1nc2cc(-c3cnc(N)nc3)ccc2n1C(C)(C)C [Example 26, 2-[5-(2-Amino-pyrimidin-5-yl)-1-tert-butyl-1H-benzoimidazol-2-yl]-N-isopropyl-benzamide]	–
200	3.05	CN(C)C(=O)c1ccccc1-c1nc2cc(-c3cnc(N)nc3)ccc2n1C(C)(C)C [Example 29, 2-[5-(2-Amino-pyrimidin-5-yl)-1-tert-butyl-1H-benzoimidazol-2-yl]-N,N-dimethyl-benzamide]	–
